Laboratory results taken from US20150307938A1, “METHOD TO IDENTIFY A NOVEL CLASS OF IMMUNOLOGIC ADJUVANTS” (Lancell, L.L.C., priority 2011, published 2015).

System: skin
Assay: Affymetrix microarray of skin, DBP-4 hr and analogs vs. untreated; gene selection by log-2 fold change, Wilcoxon, Kendall tau (Tables 8, 9)
Format: in vivo, mouse
Conditions: DBP-4 hr

In the case of `CCCCOC(=O)c1ccccc1C(=O)OCCCC` [DBP, dibutylphthalate], the “DBP Expression: Nr4a2” value (NM_013613_at) is reported as 7.45, the “DBP Expression: Ccl7” value (NM_013654_at) is reported as 8.86 and the “DBP Expression: Plk3” value (NM_013807_at) is reported as 8.72. For the same molecule, the “DBP Expression: Bcar3” value (NM_013867_at) was 7.96, the “DBP Expression: Clic4” value (NM_013885_at) was 9.05 and the “DBP Expression: Rgs1” value (NM_015811_at) was 7.35. The “DBP Expression: Aqp3” value (NM_016689_at) was 10.49, the “DBP Expression: Map3k6” value (NM_016693_at) was 8.79 and the “DBP Expression: Krt35” value (NM_016880_at) was 5.45. For the same molecule, the “DBP Expression: Ccl20” value (NM_016960_at) was 11.11, the “DBP Expression: Nfil3” value (NM_017373_at) was 8.13 and the “DBP Expression: Arc” value (NM_018790_at) was 6.81. The “DBP Expression: Cd86” value (NM_019388_at) was 7.42, the “DBP Expression: Nfkb2” value (NM_019408_at) was 8.26 and the “DBP Expression: Ramp3” value (NM_019511_at) was 7.94. The “DBP Expression: Pde4b” value (NM_019840_at) was 8.96, the “DBP Expression: Clec7a” value (NM_020008_at) was 9.14 and the “DBP Expression: Angptl4” value (NM_020581_at) was 9.51. For the same molecule, the “DBP Expression: Pmaip1” value (NM_021451_at) was 8.41, the “DBP Expression: Gpr35” value (NM_022320_at) was 5.63 and the “DBP Expression: Ptges” value (NM_022415_at) was 8.31. For the same molecule, the “DBP Expression: Cxcl16” value (NM_023158_at) was 8.99, the “DBP Expression: Zfp593” value (NM_024215_at) was 6.14 and the “DBP Expression: Pqlc1” value (NM_025861_at) was 10.20. The “DBP Expression: Efhd2” value (NM_025994_at) was 10.57, the “DBP Expression: Slc39a8” value (NM_026228_at) was 6.13 and the “DBP Expression: Dusp6” value (NM_026268_at) was 10.59. For the same molecule, the “DBP Expression: 1810011010Rik” value (NM_026931_at) was 9.68, the “DBP Expression: Pvr” value (NM_027514_at) was 6.71 and the “DBP Expression: 1810055G02Rik” value (NM_028077_at) was 8.40. For the same molecule, the “DBP Expression: Rnf19b” value (NM_029219_at) was 8.99, the “DBP Expression: Slc10a6” value (NM_029415_at) was 9.28 and the “DBP Expression: Abcc3” value (NM_029600_at) was 7.87. For the same molecule, the “DBP Expression: 1600029D21Rik” value (NM_029639_at) was 10.16, the “DBP Expression: Klrb 1b” value (NM_030599_at) was 6.58 and the “DBP Expression: Il6” value (NM_031168_at) was 6.41. The “DBP Expression: Bcl3” value (NM_033601_at) was 8.92, the “DBP Expression: Epgn” value (NM_053087_at) was 9.09 and the “DBP Expression: Otud7a” value (NM_130880_at) was 7.23. For the same molecule, the “DBP Expression: Ier3” value (NM_133662_at) was 11.24, the “DBP Expression: Prss22” value (NM_133731_at) was 7.96 and the “DBP Expression: Errfi1” value (NM_133753_at) was 10.14. For the same molecule, the “DBP Expression: Uap1” value (NM_133806_at) was 9.16, the “DBP Expression: Stk17b” value (NM_133810_at) was 9.70 and the “DBP Expression: Havcr2” value (NM_134250_at) was 7.20. The “DBP Expression: Cytip” value (NM_139200_at) was 9.90, the “DBP Expression: Slc39a14” value (NM_144808_at) was 6.31 and the “DBP Expression: Cd207” value (NM_144943_at) was 10.32. For the same molecule, the “DBP Expression: Pyy” value (NM_145435_at) was 9.16, the “DBP Expression: Deptor” value (NM_145470_at) was 9.12 and the “DBP Expression: Smox” value (NM_145533_at) was 8.07. The “DBP Expression: Arid5a” value (NM_145996_at) was 7.61, the “DBP Expression: Slc25a25” value (NM_146118_at) was 8.10 and the “DBP Expression: Kctd11” value (NM_153143_at) was 9.35. For the same molecule, the “DBP Expression: Dusp7” value (NM_153459_at) was 8.85, the “DBP Expression: Adamts4” value (NM_172845_at) was 6.21 and the “DBP Expression: Fam43a” value (NM_177632_at) was 9.07. For the same molecule, the “DBP Expression: Coro2a” value (NM_178893_at) was 7.02, the “DBP Expression: Gyk” value (NM_212444_at) was 9.63 and the “DBP Expression: Il4ra” value (NM_001008700_at) was 7.47. The “DBP Expression: Il1rl1” value (NM_001025602_at) was 8.40, the “DBP Expression: Zbtb16” value (NM_001033324_at) was 6.93 and the “DBP Expression: Deptor” value (NM_001037937_at) was 9.12. For the same molecule, the “DBP Expression: Cd44” value (NM_001039150_at) was 9.82, the “DBP Expression: Cd44” value (NM_001039151_at) was 9.82 and the “DBP Expression: Irs2” value (NM_001081212_at) was 8.35. For the same molecule, the “DBP Expression: Pprc1” value (NM_001081214_at) was 8.81, the “DBP Expression: Gpr35” value (NM_001104529_at) was 5.63 and the “DBP Expression: Crem” value (NM_001110850_at) was 6.91. The “DBP Expression: Crem” value (NM_001110853_at) was 6.26, the “DBP Expression: Crem” value (NM_001110854_at) was 6.91 and the “DBP Expression: Crem” value (NM_001110855_at) was 6.91. For the same molecule, the “DBP Expression: Crem” value (NM_001110856_at) was 6.91, the “DBP Expression: Crem” value (NM_001110857_at) was 6.26 and the “DBP Expression: Crem” value (NM_001110858_at) was 6.26. The “DBP Expression: Crem” value (NM_001110859_at) was 6.26, the “DBP Expression: Slc39a8” value (NM_001135149_at) was 6.13 and the “DBP Expression: Slc39a8” value (NM_001135150_at) was 6.13. For the same molecule, the “DBP Expression: Slc39a14” value (NM_001135151_at) was 6.31, the “DBP Expression: Slc39a14” value (NM_001135152_at) was 6.31 and the “DBP Expression: Nr4a2” value (NM_001139509_at) was 7.45. For the same molecule, the “DBP Expression: Ccl20” value (NM_001159738_at) was 11.11, the “DBP Expression: Slc25a25” value (NM_001164357_at) was 8.10 and the “DBP Expression: Slc25a25” value (NM_001164358_at) was 8.10. The “DBP Expression: Pqlc1” value (NM_001164420_at) was 10.20, the “DBP Expression: Pqlc1” value (NM_001164421_at) was 10.20 and the “DBP Expression: Pqlc1” value (NM_001164422_at) was 10.20. For the same molecule, the “DBP Expression: Coro2a” value (NM_001164804_at) was 7.02 and the “DBP Expression: Tnfaip3” value (NM_001166402_at) was 7.22.
